# Values joined by “and” are separate entries in the source; they are usually repeats but may differ in a detail not shown here. Equal values may be shown once.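 These data come from cells grown in 96-well plates and exposed to compound for 48 hours at five concentrations. GI50 = concentration required for 50% inhibition of growth. TGI denotes the concentration required for complete inhibition of growth.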
# Columns and labels:
# Assay in all cases: growth of human tumour cells (NCI), 48 h
# 786-0 renal = tested on: 786-0 renal
# A498 renal = tested on: A498 renal
# A549 NSCLC = tested on: A549 NSCLC
# ACHN renal = tested on: ACHN renal
# BT-549 breast = tested on: BT-549 breast
# CAKI-1 renal = tested on: CAKI-1 renal
# CCRF-CEM leukemia = tested on: CCRF-CEM leukemia
# COLO 205 colon = tested on: COLO 205 colon
# DU-145 prostate = tested on: DU-145 prostate
# EKVX NSCLC = tested on: EKVX NSCLC
# HCC-2998 colon = tested on: HCC-2998 colon
# HCT-116 colon = tested on: HCT-116 colon
# HCT-15 colon = tested on: HCT-15 colon
# HL-60(TB) leukemia = tested on: HL-60(TB) leukemia
# HOP-62 NSCLC = tested on: HOP-62 NSCLC
# HOP-92 NSCLC = tested on: HOP-92 NSCLC
# HS 578T breast = tested on: HS 578T breast
# HT29 colon = tested on: HT29 colon
# IGROV1 ovarian = tested on: IGROV1 ovarian
# K-562 leukemia = tested on: K-562 leukemia
# KM12 colon = tested on: KM12 colon
# LOX IMVI melanoma = tested on: LOX IMVI melanoma
# M14 melanoma = tested on: M14 melanoma
# MALME-3M melanoma = tested on: MALME-3M melanoma
# MCF7 breast = tested on: MCF7 breast
# MDA-MB-231 breast = tested on: MDA-MB-231 breast
# MDA-MB-435 = tested on: MDA-MB-435
# MOLT-4 leukemia = tested on: MOLT-4 leukemia
# NCI-H226 lung = tested on: NCI-H226 lung
# NCI-H23 lung = tested on: NCI-H23 lung
# NCI-H460 lung = tested on: NCI-H460 lung
# NCI-H522 lung = tested on: NCI-H522 lung
# NCI/ADR-RES ovarian = tested on: NCI/ADR-RES ovarian
# OVCAR-3 ovarian = tested on: OVCAR-3 ovarian
# OVCAR-4 ovarian = tested on: OVCAR-4 ovarian
# OVCAR-5 ovarian = tested on: OVCAR-5 ovarian
# OVCAR-8 ovarian = tested on: OVCAR-8 ovarian
# PC-3 prostate = tested on: PC-3 prostate
# RPMI-8226 leukemia = tested on: RPMI-8226 leukemia
# RXF 393 renal = tested on: RXF 393 renal
# SF-268 CNS = tested on: SF-268 CNS
# SF-295 CNS = tested on: SF-295 CNS
# SF-539 CNS = tested on: SF-539 CNS
# SK-MEL-2 melanoma = tested on: SK-MEL-2 melanoma
# SK-MEL-28 melanoma = tested on: SK-MEL-28 melanoma
# SK-MEL-5 melanoma = tested on: SK-MEL-5 melanoma
# SK-OV-3 ovarian = tested on: SK-OV-3 ovarian
# SN12C renal = tested on: SN12C renal
# SNB-19 CNS = tested on: SNB-19 CNS
# SNB-75 CNS = tested on: SNB-75 CNS
# SR leukemia = tested on: SR leukemia
# SW-620 colon = tested on: SW-620 colon
# T-47D breast = tested on: T-47D breast
# TK-10 renal = tested on: TK-10 renal
# U251 CNS = tested on: U251 CNS
# UACC-257 melanoma = tested on: UACC-257 melanoma
# UACC-62 melanoma = tested on: UACC-62 melanoma
# UO-31 renal = tested on: UO-31 renal
structure (smiles),measurement,setting,value
Cc1cc(Nc2ncc(Cl)c(Nc3ccccc3S(=O)(=O)C(C)C)n2)c(OC(C)C)cc1C1CCNCC1,GI50,786-0 renal,1.56 µM
same,TGI,786-0 renal,3.01 µM
same,GI50,A498 renal,1.88 µM
same,TGI,A498 renal,6.83 µM
same,GI50,A549 NSCLC,1.34 µM
same,TGI,A549 NSCLC,2.69 µM
same,GI50,ACHN renal,1.59 µM and 1.33 µM
same,TGI,ACHN renal,2.94 µM and 2.61 µM
same,GI50,BT-549 breast,4.47 µM
same,GI50,CAKI-1 renal,1.87 µM
same,TGI,CAKI-1 renal,5.29 µM
same,GI50,CCRF-CEM leukemia,1.87 µM
same,TGI,CCRF-CEM leukemia,4.18 µM
same,GI50,COLO 205 colon,0.312 µM and 0.332 µM
same,TGI,COLO 205 colon,1.39 µM and 1.28 µM
same,GI50,DU-145 prostate,1.41 µM and 1.53 µM and 1.29 µM
same,TGI,DU-145 prostate,2.79 µM and 2.88 µM and 2.55 µM
same,GI50,EKVX NSCLC,1.14 µM
same,TGI,EKVX NSCLC,2.71 µM
same,GI50,HCC-2998 colon,0.991 µM
same,TGI,HCC-2998 colon,2.21 µM
same,GI50,HCT-116 colon,1.24 µM
same,TGI,HCT-116 colon,2.62 µM
same,GI50,HCT-15 colon,1.21 µM
same,TGI,HCT-15 colon,2.59 µM
same,GI50,HL-60(TB) leukemia,0.253 µM
same,TGI,HL-60(TB) leukemia,1.64 µM
same,GI50,HOP-62 NSCLC,1.4 µM
same,TGI,HOP-62 NSCLC,2.75 µM
same,GI50,HOP-92 NSCLC,0.346 µM
same,TGI,HOP-92 NSCLC,1.55 µM
same,GI50,HS 578T breast,1.66 µM and 1.94 µM and 1.61 µM
same,TGI,HS 578T breast,5.25 µM and 5.34 µM and 4.48 µM
same,GI50,HT29 colon,0.237 µM and 0.304 µM
same,TGI,HT29 colon,1.24 µM and 1.27 µM
same,GI50,IGROV1 ovarian,1.56 µM and 1.12 µM
same,TGI,IGROV1 ovarian,3.37 µM and 2.36 µM
same,GI50,K-562 leukemia,1.39 µM
same,TGI,K-562 leukemia,3.82 µM
same,GI50,KM12 colon,1.49 µM and 0.911 µM
same,TGI,KM12 colon,3.11 µM and 2.1 µM
same,GI50,LOX IMVI melanoma,1.36 µM
same,TGI,LOX IMVI melanoma,2.71 µM
same,GI50,M14 melanoma,1.37 µM
same,TGI,M14 melanoma,2.9 µM
same,GI50,MALME-3M melanoma,0.857 µM and 0.265 µM
same,TGI,MALME-3M melanoma,2.25 µM and 1.25 µM
same,GI50,MCF7 breast,0.552 µM
same,TGI,MCF7 breast,2.04 µM
same,GI50,MDA-MB-231 breast,1.37 µM
same,TGI,MDA-MB-231 breast,2.71 µM
same,GI50,MDA-MB-435,0.944 µM
same,TGI,MDA-MB-435,2.16 µM
same,GI50,MOLT-4 leukemia,1.55 µM
same,TGI,MOLT-4 leukemia,3.7 µM
same,GI50,NCI-H226 lung,1.29 µM and 1.56 µM and 1.7 µM
same,TGI,NCI-H226 lung,3.1 µM and 3.95 µM and 4.25 µM
same,GI50,NCI-H23 lung,1.51 µM
same,TGI,NCI-H23 lung,3.07 µM
same,GI50,NCI-H460 lung,1.2 µM
same,TGI,NCI-H460 lung,2.83 µM
same,GI50,NCI-H522 lung,1.52 µM
same,TGI,NCI-H522 lung,3.06 µM
same,GI50,NCI/ADR-RES ovarian,1.52 µM
same,TGI,NCI/ADR-RES ovarian,3.4 µM
same,GI50,OVCAR-3 ovarian,1.61 µM and 1.37 µM
same,TGI,OVCAR-3 ovarian,3.01 µM and 2.66 µM
same,GI50,OVCAR-4 ovarian,2.14 µM and 1.15 µM
same,TGI,OVCAR-4 ovarian,7.61 µM and 2.46 µM
same,GI50,OVCAR-5 ovarian,1.14 µM and 0.714 µM and 0.644 µM
same,TGI,OVCAR-5 ovarian,2.38 µM and 2.13 µM and 2.15 µM
same,GI50,OVCAR-8 ovarian,1.74 µM and 1.41 µM
same,TGI,OVCAR-8 ovarian,3.59 µM and 4.23 µM
same,GI50,PC-3 prostate,1.42 µM and 0.793 µM
same,TGI,PC-3 prostate,2.92 µM and 2.07 µM
same,GI50,RPMI-8226 leukemia,0.753 µM
same,TGI,RPMI-8226 leukemia,2.85 µM
same,GI50,RXF 393 renal,1.27 µM
same,TGI,RXF 393 renal,2.64 µM
same,GI50,SF-268 CNS,1.61 µM
same,TGI,SF-268 CNS,3.38 µM
same,GI50,SF-295 CNS,1.43 µM and 1.63 µM
same,TGI,SF-295 CNS,2.81 µM and 3.16 µM
same,GI50,SF-539 CNS,1.62 µM
same,TGI,SF-539 CNS,2.99 µM
same,GI50,SK-MEL-2 melanoma,1.47 µM
same,TGI,SK-MEL-2 melanoma,3.06 µM
same,GI50,SK-MEL-28 melanoma,1.22 µM
same,TGI,SK-MEL-28 melanoma,2.47 µM
same,GI50,SK-MEL-5 melanoma,1.4 µM
same,TGI,SK-MEL-5 melanoma,2.73 µM
same,GI50,SK-OV-3 ovarian,2.02 µM and 1.67 µM
same,TGI,SK-OV-3 ovarian,4.39 µM and 3.03 µM
same,GI50,SN12C renal,1.76 µM
same,TGI,SN12C renal,3.29 µM
same,GI50,SNB-19 CNS,1.73 µM
same,TGI,SNB-19 CNS,3.14 µM
same,GI50,SNB-75 CNS,1.2 µM
same,TGI,SNB-75 CNS,2.44 µM
same,GI50,SR leukemia,0.0444 µM
same,TGI,SR leukemia,1.58 µM
same,GI50,SW-620 colon,0.776 µM
same,TGI,SW-620 colon,2.61 µM
same,GI50,T-47D breast,1.47 µM and 1.57 µM
same,TGI,T-47D breast,3.27 µM and 3.17 µM
same,GI50,TK-10 renal,1.42 µM and 1.33 µM
same,TGI,TK-10 renal,2.76 µM and 2.61 µM
same,GI50,U251 CNS,1.39 µM
same,TGI,U251 CNS,2.72 µM
same,GI50,UACC-257 melanoma,1.24 µM
same,TGI,UACC-257 melanoma,2.81 µM
same,GI50,UACC-62 melanoma,1.49 µM and 1.17 µM
same,TGI,UACC-62 melanoma,2.84 µM and 2.43 µM
same,GI50,UO-31 renal,1.29 µM and 1.14 µM
same,TGI,UO-31 renal,2.63 µM and 2.36 µM
